Columns and labels:
Assay type in all cases: biochemical
K-Ras G12S = target: T1, K-Ras G12S (Homo sapiens, UniProt P01116, G12S); test: HTRF resonance energy transfer assay, K-Ras G12S / SOS1 interaction; conditions: HTRF assay of Example 5; read-out: IC50 against K-Ras G12S
T1 construct: made in house; host or cells: E. coli BL21 (DE3)
Source text: (§1) This assay can be also used to assess a selective inhibition or reduction of signaling output of a mutant Ras protein relative to a wildtype, or relative to a different mutant Ras protein. For example, the equilibrium interaction of wildtype Kras or K-Ras mutant (e.g., wildtype or a mutant thereof) with SOS1 (e.g., hSOS1) can be assessed as a proxy or an indication for a subject compound's ability to bind and inhibit Ras protein. HTRF assay detects from (i) a fluorescence resonance energy transfer (FRET) donor (e.g., antiGST-Europium) that is bound to GST-tagged K-Ras mutant to (ii) a FRET acceptor (e.g., anti-6His-XL665) bound to a His-tagged hSOS1.
(§2) The assay buffer can contain˜5 mM HEPES pH 7.4, ˜150 mM NaCl, ˜ 1 mM DTT, 0.05% BSA and 0.0025%(v/v) Igepal. A Ras working solution is prepared in an assay buffer containing typically a suitable amount of the protein construct (e.g., GST-tagged K-Ras mutant) and the FRET donor (e.g., antiGST-Eu(K) from Cisbio, France). A SOS1 working solution is prepared in an assay buffer containing suitable amount of the protein construct (e.g., His-hSOS1) and the FRET acceptor (e.g., anti-6His-XL665 from Cisbio, France). A suitable amount of the protein construct will depend on the range of activity or range of IC50 values being detected or under investigation. For detecting IC50 within a range of 500 nM, the protein constructs of the same range of molarity can be utilized.
(§3) A fixed volume of DMSO with or without test compound is transferred into a 384-well plate. Ras working solution is added to all wells of the test plate. SOS1 working solution is added to all wells except for those that are subsequently filled the inhibitor control solution. Upon incubation for about 10 minutes or longer, the fluorescence is measured with a M1000Pro plate reader (Tecan) using HTRF detection (excitation 337 nm, emission 1: 620 nm, emission 2: 665 nm). Compounds are tested in duplicates at different concentrations (for example, 10 μM, 2.5 μM, 0.63 μM, 0.16 μM, 0.04 μM, 0.01 μM test compound). The ratiometric data (i.e., emission 2 divided by emission 1) is used to calculate IC50 values against Ras using GraphPad Prism (GraphPad software). Following this general procedure, samples were tested with or without a subject compound disclosed herein including compounds exemplified in Table 1 to assess their abilities to inhibit a K-Ras mutant relative to another mutant or WT. Signaling output measured in terms of IC50 values can be obtained, a ratio of IC50 against one mutant relative to another mutant can be calculated. For instance, a selective reduction of K-Ras G12D signaling output can be evidenced by a ratio greater than one. In particular, a selective reduction of K-Ras G12D signaling relative to K-Ras WT signaling is evidenced as the ratio of IC50 (against K-Ras WT) to IC50 (against K-Ras G12D) is greater than 1.

K-Ras G12V = target: T2, K-Ras G12V (Homo sapiens, UniProt P01116, G12V); test: HTRF resonance energy transfer assay, K-Ras G12V / SOS1 interaction; conditions: HTRF assay of Example 5; read-out: IC50 against K-Ras G12V
T2 construct: made in house; host or cells: E. coli BL21 (DE3)
Source text: as §1, §2, §3

K-Ras G12D = target: T3, K-Ras G12D (Homo sapiens, UniProt P01116, G12D); test: HTRF resonance energy transfer assay, K-Ras G12D / SOS1 interaction; conditions: HTRF assay of Example 5; read-out: IC50 against K-Ras G12D
T3 construct: made in house; host or cells: E. coli BL21 (DE3)
Source text: as §1, §2, §3

K-Ras WT = target: T4, K-Ras WT (Homo sapiens, UniProt P01116); test: HTRF resonance energy transfer assay, K-Ras WT / SOS1 interaction; conditions: HTRF assay of Example 5; read-out: IC50 against K-Ras WT
T4 construct: made in house; host or cells: E. coli BL21 (DE3)
Source text: as §1, §2, §3

T4 sequence (P01116 1-188 isoform P01116-2): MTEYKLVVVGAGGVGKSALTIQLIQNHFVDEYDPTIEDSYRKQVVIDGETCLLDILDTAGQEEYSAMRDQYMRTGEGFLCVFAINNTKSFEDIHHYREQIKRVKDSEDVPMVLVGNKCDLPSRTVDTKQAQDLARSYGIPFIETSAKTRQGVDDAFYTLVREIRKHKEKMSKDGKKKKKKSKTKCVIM
T3 sequence (P01116 1-188 isoform P01116-2 G12D): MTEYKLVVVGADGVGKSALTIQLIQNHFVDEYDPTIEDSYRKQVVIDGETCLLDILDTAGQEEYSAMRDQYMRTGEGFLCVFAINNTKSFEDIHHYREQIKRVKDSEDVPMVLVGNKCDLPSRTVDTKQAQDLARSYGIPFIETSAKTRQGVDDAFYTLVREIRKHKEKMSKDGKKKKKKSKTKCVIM
T1 sequence (P01116 1-188 isoform P01116-2 G12S): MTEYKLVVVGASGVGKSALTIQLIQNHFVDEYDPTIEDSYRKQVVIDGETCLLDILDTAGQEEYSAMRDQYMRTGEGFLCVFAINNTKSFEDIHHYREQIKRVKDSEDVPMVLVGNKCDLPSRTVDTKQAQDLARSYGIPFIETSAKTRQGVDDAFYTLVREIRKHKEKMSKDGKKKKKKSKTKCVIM
T2 sequence (P01116 1-188 isoform P01116-2 G12V): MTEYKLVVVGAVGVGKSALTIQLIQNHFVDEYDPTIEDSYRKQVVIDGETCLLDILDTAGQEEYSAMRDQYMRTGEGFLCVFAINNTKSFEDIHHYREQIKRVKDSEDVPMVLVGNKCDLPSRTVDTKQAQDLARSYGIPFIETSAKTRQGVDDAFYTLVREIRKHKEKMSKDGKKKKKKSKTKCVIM

| IC50 (K-Ras G12S) [nM] | IC50 (K-Ras G12V) [nM] | IC50 (K-Ras G12D) [nM] | IC50 (K-Ras WT) [nM] | Structure (SMILES) |
| --- | --- | --- | --- | --- |
| < 100 | < 100 | < 100 | < 100 | CC(=O)C1COc2c(Cl)c(-c3ccc(F)c4sc(N)c(C#N)c34)c(F)c3nc(OC[C@@]45CCCN4C[C@H](F)C5)nc(c23)N1CC(F)F (stereo partly drawn) [Compound 981, 4-(5-acetyl-8-chloro-4-(2,2-difluoroethyl)-10-fluoro-2-(((2R,7aS)-2-fluorotetrahydro-1H-pyrrolizin-7a(5H)-yl)methoxy)-5,6-dihydro-4H-[1,4]oxazepino[5,6,7-de]quinazolin-9-yl)-2-amino-7-fluorobenzo[b]thiophene-3-carbonitrile] |
| < 100 | < 100 | < 100 | < 100 | N#Cc1c(N)sc2c(F)ccc(-c3c(Cl)c4c5c(nc(OC[C@@]67CCCN6C[C@H](F)C7)nc5c3F)N(CC3(N)CCC3)CCCO4)c12 [Compound 1213, 2-amino-4-(4-((1-aminocyclobutyl)methyl)-9-chloro-11-fluoro-2-(((2R,7aS)-2-fluorotetrahydro-1H-pyrrolizin-7a(5H)-yl)methoxy)-4,5,6,7-tetrahydro-[1,5]oxazocino [4,3,2-de]quinazolin-10-yl)-7-fluorobenzo[b]thiophene-3-carbonitrile] |
| < 100 | < 100 | < 100 | < 100 | N#Cc1c(N)sc2c(F)ccc(-c3c(Cl)c4c5c(nc(OC[C@@]67CCCN6C[C@H](F)C7)nc5c3F)N(Cc3ccn[nH]3)CCO4)c12 [Compound 1023, 4-(4-((1H-pyrazol-5-yl)methyl)-8-chloro-10-fluoro-2-(((2R,7aS)-2-fluorotetrahydro-1H-pyrrolizin-7a(5H)-yl)methoxy)-5,6-dihydro-4H-[1,4]oxazepino[5,6,7-de]quinazolin-9-yl)-2-amino-7-fluorobenzo[b]thiophene-3-carbonitrile] |
| < 100 | < 100 | < 100 | < 100 | CS(=O)(=O)N1CC1C(=O)NCCN1CCOc2c(Cl)c(-c3ccc(F)c4sc(N)c(C#N)c34)c(F)c3nc(OC[C@@]45CCCN4C[C@H](F)C5)nc1c23 (stereo partly drawn) [Compound 1077, N-(2-(9-(2-amino-3-cyano-7-fluorobenzo[b]thiophen-4-yl)-8-chloro-10-fluoro-2-(((2R,7aS)-2-fluorotetrahydro-1H-pyrrolizin-7a(5H)-yl)methoxy)-5,6-dihydro-4H-[1,4]oxazepino[5,6,7-de]quinazolin-4-yl)ethyl)-1-(methylsulfonyl)aziridine-2-carboxamide] |

Further lines, the compound ahead of its results:

| Structure (SMILES) | IC50 (K-Ras G12S) [nM] | IC50 (K-Ras G12V) [nM] | IC50 (K-Ras G12D) [nM] | IC50 (K-Ras WT) [nM] |
| --- | --- | --- | --- | --- |
| N#Cc1c(N)sc2c(F)ccc(-c3c(Cl)c4c5c(nc(OC[C@@]67CCCN6C[C@H](F)C7)nc5c3F)N(C3CCCNC3)CCO4)c12 (stereo partly drawn) [Compound 787, 2-amino-4-(8-chloro-10-fluoro-2-(((2R,7aS)-2-fluorotetrahydro-1H-pyrrolizin-7a(5H)-yl)methoxy)-4-(piperidin-3-yl)-5,6-dihydro-4H-[1,4]oxazepino[5,6,7-de]quinazolin-9-yl)-7-fluorobenzo[b]thiophene-3-carbonitrile] | < 100 | < 100 | < 100 | < 100 |
| CNCCCN1c2nc(OC[C@@]34CCCN3C[C@H](F)C4)nc3c(F)c(-c4ccc(F)c5sc(N)c(C#N)c45)c(Cl)c(c23)OCC1CC#N (stereo partly drawn) [Compound 928, 2-amino-4-(8-chloro-5-(cyanomethyl)-10-fluoro-2-(((2R,7aS)-2-fluorotetrahydro-1H-pyrrolizin-7a(5H)-yl)methoxy)-4-(3-(methylamino)propyl)-5,6-dihydro-4H-[1,4]oxazepino[5,6,7-de]quinazolin-9-yl)-7-fluorobenzo[b]thiophene-3-carbonitrile] | < 100 | < 100 | < 100 | < 100 |
| N#Cc1c(N)sc2c(F)ccc(-c3c(Cl)c4c5c(nc(OC[C@@]67CCCN6C[C@H](F)C7)nc5c3F)N(C3CCCCN(C(=O)C5CN5)C3)CCO4)c12 (stereo partly drawn) [Compound 934, 2-amino-4-(4-(1-(aziridine-2-carbonyl)azepan-3-yl)-8-chloro-10-fluoro-2-(((2R,7aS)-2-fluorotetrahydro-1H-pyrrolizin-7a(5H)-yl)methoxy)-5,6-dihydro-4H-[1,4]oxazepino[5,6,7-de]quinazolin-9-yl)-7-fluorobenzo[b]thiophene-3-carbonitrile] | < 100 | < 100 | < 100 | < 100 |
| C#Cc1c(F)ccc2cc(O)cc(-c3nc4c5c(nc(OC[C@@]67CCCN6C[C@H](F)C7)nc5c3F)N(C3CCNC3)CCO4)c12 (stereo partly drawn) [Compound 939, 5-ethynyl-6-fluoro-4-(4-fluoro-2-(((2R,7aS)-2-fluorotetrahydro-1H-pyrrolizin-7a(5H)-yl)methoxy)-10-(pyrrolidin-3-yl)-9,10-dihydro-8H-7-oxa-1,3,6,10-tetraazacyclohepta[de]naphthalen-5-yl)naphthalen-2-ol] | < 100 | < 100 | < 100 | < 100 |
| N#Cc1c(N)sc2c(F)ccc(-c3c(Cl)c4c5c(nc(OC[C@@]67CCCN6C[C@H](F)C7)nc5c3F)N(CC(F)F)C(C3CCN3)CO4)c12 (stereo partly drawn) [Compound 816, 2-amino-4-(5-(azetidin-2-yl)-8-chloro-4-(2,2-difluoroethyl)-10-fluoro-2-(((2R,7aS)-2-fluorotetrahydro-1H-pyrrolizin-7a(5H)-yl)methoxy)-5,6-dihydro-4H-[1,4]oxazepino[5,6,7-de]quinazolin-9-yl)-7-fluorobenzo[b]thiophene-3-carbonitrile] | < 100 | < 100 | < 100 | < 100 |
| N#Cc1c(N)sc2c(F)ccc(-c3c(Cl)c4c5c(nc(OC[C@@]67CCCN6C[C@H](F)C7)nc5c3F)N(CC(F)F)C(CO)CO4)c12 (stereo partly drawn) [Compound 840, 2-amino-4-(8-chloro-4-(2,2-difluoroethyl)-10-fluoro-2-(((2R,7aS)-2-fluorotetrahydro-1H-pyrrolizin-7a(5H)-yl)methoxy)-5-(hydroxymethyl)-5,6-dihydro-4H-[1,4]oxazepino[5,6,7-de]quinazolin-9-yl)-7-fluorobenzo[b]thiophene-3-carbonitrile] | < 100 | < 100 | < 100 | < 100 |
| N#Cc1c(N)sc2c(F)ccc(-c3c(Cl)c4c5c(nc(OC[C@@]67CCCN6C[C@H](F)C7)nc5c3F)N([C@H]3CCNC3)CCO4)c12 [Compound 858, 2-amino-4-(8-chloro-10-fluoro-2-(((2R,7aS)-2-fluorotetrahydro-1H-pyrrolizin-7a(5H)-yl)methoxy)-4-((S)-pyrrolidin-3-yl)-5,6-dihydro-4H-[1,4]oxazepino[5,6,7-de]quinazolin-9-yl)-7-fluorobenzo[b]thiophene-3-carbonitrile] | < 100 | < 100 | < 100 | < 100 |
| N#Cc1c(N)sc2c(F)ccc(-c3c(Cl)c4c5c(nc(OC[C@@]67CCCN6C[C@H](F)C7)nc5c3F)N(C3CCOC3)C(C3(C#N)CC3)CO4)c12 (stereo partly drawn) [Compound 913, 2-amino-4-(8-chloro-5-(1-cyanocyclopropyl)-10-fluoro-2-(((2R,7aS)-2-fluorotetrahydro-1H-pyrrolizin-7a(5H)-yl)methoxy)-4-(tetrahydrofuran-3-yl)-5,6-dihydro-4H-[1,4]oxazepino[5,6,7-de]quinazolin-9-yl)-7-fluorobenzo[b]thiophene-3-carbonitrile] | < 100 | < 100 | < 100 | < 100 |

Reference: patent publication US12209102B2, “Heterocyclic compounds and uses thereof” (Kumquat Biosciences Inc., priority 2022, dated 2025)
